Source: patent publication US20080139552A1, “INDOLES” (priority 2006, published 2008)

Molecular target: T1, human V1a receptor (Homo sapiens, UniProt P37288)
T1 construct: expressed in transfected cells; host or cells: HEK293 cells, transiently transfected; cell membranes
Assay: human V1a receptor binding (3H-Vasopressin SPA, HEK293 cell membranes)
Conditions: membranes from HEK293 cells transiently transfected with human V1a receptor, Ki by Cheng-Prussoff, read-out: pki (hV1a) (converted)
Description: The human V1a receptor was cloned by RT-PCR from total human liver RNA. The coding sequence was subcloned in an expression vector after sequencing to confirm the identity of the amplified sequence. […] Cell membranes were prepared from HEK293 cells transiently transfected with the expression vector and grown in 20 liter fermenters with the following protocol.
50 g of cells were resuspended in 30 ml freshly prepared ice cold Lysis buffer (50 mM HEPES, 1 mM EDTA, 10 mM MgCl2 adjusted to pH=7.4+complete cocktail of protease inhibitor (Roche Diagnostics)), homogenized with Polytron for 1 min, and sonicated on ice for 2×2 minutes at 80% intensity (Vibracell sonicator). The preparation was centrifuged 20 min at 500 g at 4° C., the pellet was discarded and the supernatant centrifuged 1 hour at 43,000 g at 4° C. (19,000 rpm). The pellet was resuspended in 12.5 ml Lysis buffer+12.5ml Sucrose 20% and homogenized using a Polytron for 1-2 min. The protein concentration was determined by the Bradford method and aliquots were stored at −80° C. until use. For binding studies 60 mg Yttrium silicate SPA beads (Amersham) were mixed with an aliquot of membrane in binding buffer (50 mM Tris, 120 mM NaCl, 5 mM KCl, 2 mM CaCl2, 10 mM MgCl2) for 15 minutes with mixing. 50 ul of bead/membrane mixture was then added to each well of a 96 well plate, followed by 50 ul of 4 nM 3H-Vasopressin (American Radiolabeled Chemicals). For total binding measurement 100 ul of binding buffer were added to the respective wells, for non-specific binding 100 ul of 8.4 mM cold vasopressin were added, and for compound testing 100 ul of a serial dilution of each compound in 2% DMSO were added. The plate was incubated 1 h at room temperature, centrifuged 1 min at 1000 g and counted on a Packard Top-Count. Non-specific binding counts were subtracted from each well and data was normalized to the maximum specific binding set at 100%. To calculate an IC 50 the curve was fitted using a non-linear regression model (XLfit) and the Ki was calculated using the Cheng-Prussoff equation.

T1 sequence (P37288 whole entry): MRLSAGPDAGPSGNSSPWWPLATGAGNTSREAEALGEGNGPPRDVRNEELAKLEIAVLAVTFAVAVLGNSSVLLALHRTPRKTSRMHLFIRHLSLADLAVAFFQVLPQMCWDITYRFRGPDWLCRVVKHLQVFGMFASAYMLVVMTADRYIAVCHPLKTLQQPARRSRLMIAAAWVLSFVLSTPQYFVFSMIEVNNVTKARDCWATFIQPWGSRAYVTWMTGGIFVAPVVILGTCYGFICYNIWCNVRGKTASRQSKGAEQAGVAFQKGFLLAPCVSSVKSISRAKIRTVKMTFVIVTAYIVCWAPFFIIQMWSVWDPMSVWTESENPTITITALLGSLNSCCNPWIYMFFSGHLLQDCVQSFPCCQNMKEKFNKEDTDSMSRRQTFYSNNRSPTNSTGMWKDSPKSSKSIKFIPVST

Row | SMILES | Ki [µM]
1 | COc1ccccc1C1CCN(C(=O)c2cc3cc(Cl)cc(CN4CCOCC4)c3[nH]2)CC1 [Example 11, (5-Chloro-7-morpholin-4-ylmethyl-1H-indol-2-yl)-[4-(2-methoxy-phenyl)-piperidin-1-yl]-methanone] | 0.0543
2 | Cc1c(C(=O)N2CC=C(c3ccccc3)CC2)[nH]c2c(C)cccc12 [Example 12, (3,7-Dimethyl-1H-indol-2-yl)-(4-phenyl-3,6-dihydro-2H-pyridin-1-yl)-methanone] | 0.0966
3 | O=C(c1cc2cc(Cl)cc(CN3CCOCC3)c2[nH]1)N1CCC(c2cccc3[nH]c(=O)oc23)CC1 [Example 2, 7-[1-(5-Chloro-7-morpholin-4-ylmethyl-1H-indole-2-carbonyl)-piperidin-4-yl]-3H-benzooxazol-2-one] | 0.00653
4 | COc1ccccc1C1CCN(C(=O)c2cc3cc(Cl)cc(CC#N)c3[nH]2)CC1 [Example 10, {5-Chloro-2-[4-(2-methoxy-phenyl)-piperidine-1-carbonyl]-1H-indol-7-yl}-acetonitrile] | 0.0457
5 | N#CCc1cc(Cl)cc2cc(C(=O)N3CCC(c4cccc5[nH]c(=O)oc45)CC3)[nH]c12 [Example 1, {5-Chloro-2-[4-(2-oxo-2,3-dihydro-benzooxazol-7-yl)-piperidine-1-carbonyl]-1H-indol-7-yl}-acetonitrile] | 0.0129
6 | COc1cccc(OC)c1C1CCN(C(=O)c2cc3cc(Cl)ccc3[nH]2)CC1 [Example 5, (5-Chloro-1H-indol-2-yl)-[4-(2,6-dimethoxy-phenyl)-piperidin-1-yl]-methanone] | 0.0407
7 | COc1cccc(OC)c1C1CCN(C(=O)c2cc3cc(Cl)ccc3n2CC#N)CC1 [Example 7, {5-Chloro-2-[4-(2,6-dimethoxy-phenyl)-piperidine-1-carbonyl]-indol-1-yl}-acetonitrile] | 0.014
8 | COc1cccc(OC)c1C1CCN(C(=O)c2cc3cc(Cl)ccc3n2CC(=O)N(C)C)CC1 [Example 6, 2-{5-Chloro-2-[4-(2,6-dimethoxy-phenyl)-piperidine-1-carbonyl]-indol-1-yl}-N,N-dimethyl-acetamide] | 0.0501
9 | COc1cccc(OC)c1C1CCN(C(=O)c2cc3cccc(CC#N)c3[nH]2)CC1 [Example 8, {2-[4-(2,6-Dimethoxy-phenyl)-piperidine-1-carbonyl]-1H-indol-7-yl}-acetonitrile] | 0.0861
10 | COc1cccc(OC)c1C1CCN(C(=O)c2cc3cc(Cl)cc(CC#N)c3[nH]2)CC1 [Example 9, {5-Chloro-2-[4-(2,6-dimethoxy-phenyl)-piperidine-1-carbonyl]-1H-indol-7-yl}-acetonitrile] | 0.0195
